Data set [1] relates to human HL-60 promyelocytic leukemia xenograft. The data set is described as follows: HL-60 xenograft in SCID mice. The note with it: for median TTE (time to endpoint): control median TTE 11.0 days.
Experimental: Nude-athymic mice were maintained in accordance with the Institutional Animal Care and Use Committee procedures and guidelines.
The medium was supplemented with 10% heat-inactivated fetal bovine serum and 2 mM glutamine.
The human HL-60 promyelocytic leukemia cells used for implantation were harvested during log phase growth and resuspended in phosphate-buffered saline at 8.0×10^7 cells/mL. Each mouse was injected s.c. in the right flank with 1.6×10^7 cells (0.2 mL cell suspension). Tumors were monitored twice weekly and then daily as their volumes approached 100 mm^3. […] Tumor size, in mm3, was calculated as: Tumor Volume=w2×l, where w=width and l=length in mm of the tumor. Tumor weight can be estimated with the assumption that 1 mg is equivalent to 1 mm3 of tumor volume.
The agent was given dose at 5 mg/kg once every day (qd) and every other day (q2d) to endpoint. Treatments began on Day 1 (D1) in groups of male SCID mice (n=6) bearing established (˜444.4 mm3) subcutaneous tumors. […] Logrank tests determine significance of the differences between TTE values for drug-treated and control mice, at P≦0.05.
Another data set has as its target PDK1 (Homo sapiens, UniProt O15530). Kind of data set: Kinome inhibition assay. Format: biochemical. How it is done:
(§1) Kinome inhibition studies were conducted following the procedures described in literature. […] In general, each purified kinase was incubated with its substrate in buffer (MOPS buffer or HEPES buffer) containing an essential metal co-enzyme or cofactor, antioxidant, and ATP (gamma-P^32 radio-labeled ATP or cold ATP). Compound 2 was co-incubated with the kinase solution thus obtained for 0.5-1 hr at 37° C. The reaction was stopped by boiling the reaction solution with an extra SDS solution. The phosphorylation level of the substrate was monitored ether by quantification of the radio-labeled substrate or by quantification of phosphor-substrate specific antibodies. In each study, a reference standard was run as an integral part to ensure the validity of the experimental results obtained. The table below includes the IC50 values obtained from this experiment.

Another data set deals with CDC42BPB (Homo sapiens, UniProt Q9Y5S2). The data set is described as follows: Kinome inhibition assay. The format is biochemical. How it is done:
as §1

A further data set has as its target AKT1 (PRKBA) (Homo sapiens, UniProt P31749). Kind of data set: Kinome inhibition assay. The format is biochemical. The method, then: as §1
In another data set the target is NTRK1 (TRKA) (Homo sapiens, UniProt P04629). Kind of data set: Kinome inhibition assay. Format: biochemical. The method, then: as §1
Chain of NTRK1 (TRKA) (P04629 33-796): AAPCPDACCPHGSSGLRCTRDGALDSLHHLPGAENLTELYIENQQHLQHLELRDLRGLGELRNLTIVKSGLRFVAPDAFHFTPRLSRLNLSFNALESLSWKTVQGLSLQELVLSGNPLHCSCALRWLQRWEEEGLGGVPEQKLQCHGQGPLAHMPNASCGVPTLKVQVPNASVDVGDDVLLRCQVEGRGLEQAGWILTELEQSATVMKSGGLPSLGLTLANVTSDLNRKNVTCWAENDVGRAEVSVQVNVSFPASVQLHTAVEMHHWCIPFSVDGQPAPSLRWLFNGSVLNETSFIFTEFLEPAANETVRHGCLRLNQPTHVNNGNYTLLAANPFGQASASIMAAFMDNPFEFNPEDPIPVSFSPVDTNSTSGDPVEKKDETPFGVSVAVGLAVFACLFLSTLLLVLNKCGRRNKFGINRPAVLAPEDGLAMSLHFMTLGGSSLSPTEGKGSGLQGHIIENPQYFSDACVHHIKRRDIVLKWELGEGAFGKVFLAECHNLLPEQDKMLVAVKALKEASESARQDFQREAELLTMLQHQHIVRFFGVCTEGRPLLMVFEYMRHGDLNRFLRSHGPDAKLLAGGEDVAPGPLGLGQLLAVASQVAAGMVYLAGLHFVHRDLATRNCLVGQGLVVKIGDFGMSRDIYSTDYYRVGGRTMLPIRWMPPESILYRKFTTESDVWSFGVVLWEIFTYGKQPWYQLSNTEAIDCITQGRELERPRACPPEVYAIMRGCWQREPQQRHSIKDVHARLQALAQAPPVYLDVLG
[2] abbreviates: 5 mg/kg p.o. every other day (q2d).
The mark [3] stands for this setting: @ 10 μM, read-out: Single dose inhibition.

Results on 1 molecule are retold here after US8710062B2, “Piperazinedione compounds” (Taipei Medical University, priority 2011, dated 2014).

The structures appear in SMILES notation. Structures can show the parent of a compound that is named as a salt.

Chain of AKT1 (PRKBA) (P31749 whole entry): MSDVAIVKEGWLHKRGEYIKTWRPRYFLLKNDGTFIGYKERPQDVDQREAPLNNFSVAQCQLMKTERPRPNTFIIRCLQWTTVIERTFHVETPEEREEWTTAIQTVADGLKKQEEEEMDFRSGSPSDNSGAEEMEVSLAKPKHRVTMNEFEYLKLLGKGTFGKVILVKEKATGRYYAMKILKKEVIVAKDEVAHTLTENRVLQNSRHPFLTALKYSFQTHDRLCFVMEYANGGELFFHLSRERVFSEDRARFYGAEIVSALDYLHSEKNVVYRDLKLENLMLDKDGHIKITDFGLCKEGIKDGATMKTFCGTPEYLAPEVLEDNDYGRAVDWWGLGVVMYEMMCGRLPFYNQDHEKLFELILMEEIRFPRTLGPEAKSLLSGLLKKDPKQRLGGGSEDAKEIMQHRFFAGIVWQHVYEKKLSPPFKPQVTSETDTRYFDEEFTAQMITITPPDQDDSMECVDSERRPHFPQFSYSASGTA
Chain of PDK1 (O15530 whole entry): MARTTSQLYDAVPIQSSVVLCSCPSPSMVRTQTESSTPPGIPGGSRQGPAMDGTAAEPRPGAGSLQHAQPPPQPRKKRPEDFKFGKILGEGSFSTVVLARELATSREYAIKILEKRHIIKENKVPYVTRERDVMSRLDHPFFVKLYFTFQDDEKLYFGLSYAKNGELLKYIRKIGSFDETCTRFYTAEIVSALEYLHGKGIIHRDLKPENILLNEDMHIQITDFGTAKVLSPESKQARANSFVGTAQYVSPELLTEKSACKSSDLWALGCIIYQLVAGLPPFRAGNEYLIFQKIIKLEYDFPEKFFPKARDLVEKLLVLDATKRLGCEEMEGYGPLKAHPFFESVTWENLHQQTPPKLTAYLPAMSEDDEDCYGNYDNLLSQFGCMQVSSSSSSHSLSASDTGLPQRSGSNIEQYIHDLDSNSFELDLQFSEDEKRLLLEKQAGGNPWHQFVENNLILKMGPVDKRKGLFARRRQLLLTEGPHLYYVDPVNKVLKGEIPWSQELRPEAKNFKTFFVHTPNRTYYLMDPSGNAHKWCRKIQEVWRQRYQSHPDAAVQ
Chain of CDC42BPB (Q9Y5S2 whole entry): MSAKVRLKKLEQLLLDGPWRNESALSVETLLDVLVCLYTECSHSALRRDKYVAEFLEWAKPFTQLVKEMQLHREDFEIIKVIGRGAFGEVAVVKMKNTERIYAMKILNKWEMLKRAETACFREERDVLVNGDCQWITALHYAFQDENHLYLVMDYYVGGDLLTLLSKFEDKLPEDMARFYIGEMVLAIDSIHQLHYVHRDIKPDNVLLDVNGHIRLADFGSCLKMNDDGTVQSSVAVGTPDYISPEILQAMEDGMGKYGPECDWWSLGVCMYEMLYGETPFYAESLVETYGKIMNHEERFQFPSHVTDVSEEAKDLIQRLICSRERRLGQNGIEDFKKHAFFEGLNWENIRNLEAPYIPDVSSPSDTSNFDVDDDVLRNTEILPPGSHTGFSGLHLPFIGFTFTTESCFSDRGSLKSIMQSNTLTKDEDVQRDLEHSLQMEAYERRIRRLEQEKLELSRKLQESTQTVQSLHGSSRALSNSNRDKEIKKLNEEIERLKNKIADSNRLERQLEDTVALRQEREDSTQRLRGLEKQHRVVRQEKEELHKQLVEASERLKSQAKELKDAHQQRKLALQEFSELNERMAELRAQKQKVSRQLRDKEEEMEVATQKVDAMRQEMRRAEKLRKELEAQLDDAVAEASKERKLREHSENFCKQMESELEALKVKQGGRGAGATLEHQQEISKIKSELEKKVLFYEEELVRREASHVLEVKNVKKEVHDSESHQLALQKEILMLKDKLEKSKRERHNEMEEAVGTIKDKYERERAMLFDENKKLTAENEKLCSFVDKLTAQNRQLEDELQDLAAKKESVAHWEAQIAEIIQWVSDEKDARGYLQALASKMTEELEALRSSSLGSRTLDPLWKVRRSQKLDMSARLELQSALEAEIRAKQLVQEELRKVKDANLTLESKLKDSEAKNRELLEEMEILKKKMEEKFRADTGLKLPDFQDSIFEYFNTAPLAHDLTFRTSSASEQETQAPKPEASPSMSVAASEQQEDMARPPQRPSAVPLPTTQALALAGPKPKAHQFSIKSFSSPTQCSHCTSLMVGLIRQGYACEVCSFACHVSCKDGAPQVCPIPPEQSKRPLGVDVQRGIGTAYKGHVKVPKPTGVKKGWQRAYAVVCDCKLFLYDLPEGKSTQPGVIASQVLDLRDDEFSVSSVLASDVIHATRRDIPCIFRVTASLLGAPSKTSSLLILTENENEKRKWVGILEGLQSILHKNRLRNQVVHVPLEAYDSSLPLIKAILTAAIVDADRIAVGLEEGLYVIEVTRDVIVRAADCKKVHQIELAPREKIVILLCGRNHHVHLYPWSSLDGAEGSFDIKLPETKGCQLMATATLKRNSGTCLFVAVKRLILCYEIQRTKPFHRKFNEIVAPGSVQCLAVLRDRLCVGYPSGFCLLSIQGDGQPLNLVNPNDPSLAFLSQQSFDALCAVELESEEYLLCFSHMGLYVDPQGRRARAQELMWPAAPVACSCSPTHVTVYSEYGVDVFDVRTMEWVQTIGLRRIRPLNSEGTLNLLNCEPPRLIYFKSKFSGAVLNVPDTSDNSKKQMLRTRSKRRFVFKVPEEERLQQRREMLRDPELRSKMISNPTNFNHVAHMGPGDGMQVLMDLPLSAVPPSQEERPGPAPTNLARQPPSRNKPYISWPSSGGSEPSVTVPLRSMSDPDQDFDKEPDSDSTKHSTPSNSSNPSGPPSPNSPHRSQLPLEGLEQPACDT

As for `O=c1[nH]/c(=C\c2ccc(OCc3ccncc3)cn2)c(=O)[nH]/c1=C\c1ccccc1` [Compound 2, 3-benzylidene-6-((5-(pyridin-4-ylmethoxy)pyridin-2-yl)methylene)piperazine-2,5-dione methanesulfonic acid salt], the “% TGD (percent tumor growth delay)” value in data set [1] (setting [2]) was determined as 120%; in data set [1] (5 mg/kg p.o. once a day (qd)) it was 29%. Also, the “T−C” value in data set [1] (setting [2]) turned out to be 13.2 days; in data set [1] (5 mg/kg p.o. once a day (qd)) it was 3.2 days. The entries for the “median TTE (time to endpoint)” value in data set [1] (setting [2]) and in data set [1] (5 mg/kg p.o. once a day (qd)) were 24.2 days and 14.2 days, respectively. Further, the “maximum BW loss” value is 4.2% in data set [1] (5 mg/kg p.o. every other day (q2d), on day 8) and 1.9% in data set [1] (5 mg/kg p.o. once a day (qd), on day 11). Besides, in data set [1] (5 mg/kg p.o. once a day (qd), n=6), the treatment related deaths result is reported as “Two”. Further, the values for the inhibition at 10 µM at PDK1 (setting [3]), on CDC42BPB (setting [3]) and at AKT1 (PRKBA) (setting [3]) were 59%, 52% and 93%, respectively. Also, the IC50 on PDK1 (PDK1, Human) amounted to 8.18 µM; at CDC42BPB (CDC42BPB, Human), 8.18 µM; on AKT1 (PRKBA) (AKT1 (PRKBA), Human) it was 3.93 µM; at NTRK1 (TRKA) (NTRK1 (TRKA), Human), 17.4 µM. For the same molecule, the inhibition at 30 µM at NTRK1 (TRKA) (@ 30 μM, read-out: Single dose inhibition) was 66%.
